Measurements reported in patent US12441736B2, “KIF18A inhibitors” (AMGEN INC., priority 2018, dated 2025).

These compounds were tested against T1, Recombinant human KIF18A (1-467 His-tagged) protein (Homo sapiens, UniProt Q8NI77) (assay: KIF18A Enzyme Assay: microtubule-stimulated ATPase activity (ADP-Glo)). Details: 30 nM KIF18A, 30 μg/mL pig microtubules, 75 μM ATP, ADP-Glo luminescence.
T1 construct: Recombinant human KIF18A (1-467 His-tagged) protein; His; made in house
Type: biochemical
Description: KIF18A Enzyme Assay: Microtubule-stimulated ATPase activity assay is used to measure KIF18A enzyme activity after treatment with compound. Compounds were 2-fold serially diluted in DMSO (Sigma Inc) over 22-point concentration range. Recombinant human KIF18A (1-467 His-tagged) protein was expressed using a baculovirus system and purified by affinity chromatography by Amgen Inc. Concentrations of KIF18A protein, microtubules (MT), and ATP in the reaction were optimized for standardized homogenous enzyme assay using ADP-Glo™ Kinase/ATPase Assay Kit (Promega Inc). The assay measures ADP formed from the ATPase reaction. Prepare reaction buffer [(15 mM Tris, pH 7.5 (Teknova Inc), 10 mM MgCl2 (IT Baker Inc), 0.01% Pluronic F-68 (Life Technologies Inc), 1 μM Taxol (Cytoskeleton Inc), and 30 μg/mL pig microtubules (Cytoskeleton Inc)]. Add compound and KIF18A protein (30 nM) to prepared reaction buffer and incubated for 15 minutes at room temperature, next add ATP (at Kin, 75 μM) to the reaction mixture and incubated for an additional 15 minutes at room temperature. Mix 5 μl of ADP-Glo™ Reagent and 2.5 μl of the reaction mixture and incubate for 40 minutes at room temperature. Add 10 μl ADP-Glo™ Detection Reagent and incubate for 40 minutes at room temperature. Read luminescence using EnVision microplate reader with ultra-luminescence module (Perkin Elmer Inc). Concentration-response curve-fitting and IC50 determination was performed using Genedata Screener Software (Standard 15.0.1, Genedata Inc) with a four-parameter logistic regression fit model.
Table A provides data for compounds exemplified in the present application and priority document thereof, as representative compounds of the present invention, as follows: chemical name (as named by either ACD software or ChemDraw (Professional 15.0)) and biological data (IC50 in μM). Ex. # refers to Example No.

T1 sequence (Q8NI77 1-467): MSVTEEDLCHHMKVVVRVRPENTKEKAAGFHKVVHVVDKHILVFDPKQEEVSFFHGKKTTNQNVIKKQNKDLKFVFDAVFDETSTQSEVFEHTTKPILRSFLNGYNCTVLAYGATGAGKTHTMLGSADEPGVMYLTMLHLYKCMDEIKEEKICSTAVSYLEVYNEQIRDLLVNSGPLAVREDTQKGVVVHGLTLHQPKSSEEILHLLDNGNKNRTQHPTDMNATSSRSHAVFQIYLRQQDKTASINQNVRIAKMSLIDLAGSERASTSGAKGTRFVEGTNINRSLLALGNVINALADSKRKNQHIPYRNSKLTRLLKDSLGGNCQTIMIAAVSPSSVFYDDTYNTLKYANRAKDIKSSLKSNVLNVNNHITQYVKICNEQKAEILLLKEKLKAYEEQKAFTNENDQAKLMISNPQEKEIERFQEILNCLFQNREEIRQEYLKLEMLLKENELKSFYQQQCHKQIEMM
T1 sequence (P02550 whole entry partner): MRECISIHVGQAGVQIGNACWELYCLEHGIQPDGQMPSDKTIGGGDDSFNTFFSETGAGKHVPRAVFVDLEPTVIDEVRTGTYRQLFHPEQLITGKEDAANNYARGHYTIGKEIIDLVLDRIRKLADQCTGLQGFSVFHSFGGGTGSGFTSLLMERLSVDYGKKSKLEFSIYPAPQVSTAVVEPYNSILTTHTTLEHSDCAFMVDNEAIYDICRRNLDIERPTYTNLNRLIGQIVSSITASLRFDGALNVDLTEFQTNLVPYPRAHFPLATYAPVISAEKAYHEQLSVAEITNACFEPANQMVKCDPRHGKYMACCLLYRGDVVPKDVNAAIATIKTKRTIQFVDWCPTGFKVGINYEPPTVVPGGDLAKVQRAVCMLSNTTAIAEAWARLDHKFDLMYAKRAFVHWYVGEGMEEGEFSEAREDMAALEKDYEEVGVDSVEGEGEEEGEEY
T1 sequence (P02554 whole entry partner): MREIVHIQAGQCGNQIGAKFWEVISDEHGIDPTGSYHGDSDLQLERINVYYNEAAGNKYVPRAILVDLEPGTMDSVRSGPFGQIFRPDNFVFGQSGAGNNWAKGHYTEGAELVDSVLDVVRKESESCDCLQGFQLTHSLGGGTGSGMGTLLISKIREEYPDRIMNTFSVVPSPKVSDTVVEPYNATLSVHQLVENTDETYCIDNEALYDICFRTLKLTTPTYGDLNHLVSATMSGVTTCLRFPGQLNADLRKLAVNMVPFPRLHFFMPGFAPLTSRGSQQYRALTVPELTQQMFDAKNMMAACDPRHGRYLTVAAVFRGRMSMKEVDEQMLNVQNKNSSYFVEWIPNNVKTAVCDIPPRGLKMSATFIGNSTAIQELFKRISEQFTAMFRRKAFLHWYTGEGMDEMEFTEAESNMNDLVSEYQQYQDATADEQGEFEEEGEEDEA

IC50	SMILES
87.8 nM	CC(C)(C)NS(=O)(=O)c1cccc(NC(=O)c2ncc(NC(C)(CO)CO)nc2N2CCC3(CC2)CC3)n1 [Example 108, N-(6-(N-(tert-butyl)sulfamoyl)pyridin-2-yl)-5-((1,3-dihydroxy-2-methylpropan-2-yl)amino)-3-(6-azaspiro[2.5]octan-6-yl)pyrazine-2-carboxamide]
79.3 nM	CC(C)(C)NS(=O)(=O)c1cccc(NC(=O)c2ncc(NC3(CO)CC3)nc2N2CCC3(CC2)CC3)n1 [Example 109, 3-(6-azaspiro[2.5]oct-6-yl)-5-((1-(hydroxymethyl)cyclopropyl)amino)-N-(6-((2-methyl-2-propanyl)sulfamoyl)-2-pyridinyl)-2-pyrazinecarboxamide]
260 nM	CC(C)(C)NS(=O)(=O)c1cccc(NC(=O)c2ncc(C(C)(O)C(F)(F)F)nc2N2CCC3(CC2)CC3)n1 (stereo not shown) [Example 110, N-(6-(N-(tert-butyl)sulfamoyl)pyridin-2-yl)-3-(6-azaspiro[2.5]octan-6-yl)-5-(1,1,1-trifluoro-2-hydroxypropan-2-yl)pyrazine-2-carboxamide]
112 nM	CC(C)(CO)Nc1cnc(C(=O)Nc2cc(Cl)cc(N3CCOCC3)n2)c(N2CCC3(CC2)CC3)n1 [Example 113, 3-(6-azaspiro[2.5]oct-6-yl)-N-(4-chloro-6-(4-morpholinyl)-2-pyridinyl)-5-((1-hydroxy-2-methyl-2-propanyl)amino)-2-pyrazinecarboxamide]
178 nM	Cc1cc(NC(=O)c2ncc(NC(C)(C)CO)nc2N2CCC3(CC2)CC3)nc(N2CCOCC2)c1 [Example 114, 3-(6-azaspiro[2.5]octan-6-yl)-5-((1-hydroxy-2-methyl-2-propanyl)amino)-N-(4-methyl-6-(4-morpholinyl)-2-pyridinyl)-2-pyrazinecarboxamide]
106 nM	CC(CO)(CO)Nc1cnc(C(=O)Nc2cccc(N3CCOCC3)n2)c(N2CCC3(CC2)CC3)n1 [Example 115, 3-(6-azaspiro[2.5]octan-6-yl)-5-((1,3-dihydroxy-2-methyl-2-propanyl)amino)-N-(6-(4-morpholinyl)-2-pyridinyl)-2-pyrazinecarboxamide]
1160 nM	COc1cc(NC(=O)c2ncc(NC(C)(C)CO)nc2N2CCC3(CC2)CC3)nc(N2CCOCC2)c1 [Example 116, 3-(6-azaspiro[2.5]octan-6-yl)-5-((1-hydroxy-2-methyl-2-propanyl)amino)-N-(4-methoxy-6-(4-morpholinyl)-2-pyridinyl)-2-pyrazinecarboxamide]
138 nM	CC(C)(CO)Nc1cnc(C(=O)Nc2cc(C#N)cc(N3CCOCC3)n2)c(N2CCC3(CC2)CC3)n1 [Example 117, 3-(6-azaspiro[2.5]octan-6-yl)-N-(4-cyano-6-(4-morpholinyl)-2-pyridinyl)-5-((1-hydroxy-2-methyl-2-propanyl)amino)-2-pyrazinecarboxamide]
540 nM	CC(C)(CO)Nc1cnc(C(=O)Nc2cc(C3CC3)cc(N3CCOCC3)n2)c(N2CCC3(CC2)CC3)n1 [Example 118, 3-(6-azaspiro[2.5]octan-6-yl)-N-(4-cyclopropyl-6-(4-morpholinyl)-2-pyridinyl)-5-((1-hydroxy-2-methyl-2-propanyl)amino)-2-pyrazinecarboxamide]
817 nM	CC(C)(C)NS(=O)(=O)c1cccc(NC(=O)c2ncc(N3C(=O)OCC3(C)C)nc2N2CCC3(CC2)CC3)n1 [Example 119, 3-(6-azaspiro[2.5]octan-6-yl)-5-(4,4-dimethyl-2-oxo-1,3-oxazolidin-3-yl)-N-(6-((2-methyl-2-propanyl)sulfamoyl)-2-pyridinyl)-2-pyrazinecarboxamide]
176 nM	CC(C)(CO)Nc1cnc(C(=O)Nc2cccc(N3CCO[C@H](CO)C3)n2)c(N2CCC3(CC2)CC3)n1 [Example 120, 3-(6-azaspiro[2.5]octan-6-yl)-N-(6-((2S)-2-(hydroxymethyl)-4-morpholinyl)-2-pyridinyl)-5-((1-hydroxy-2-methyl-2-propanyl)amino)-2-pyrazinecarboxamide]
642 nM	C[C@@H]1CN(c2cccc(NC(=O)c3ncc(NS(C)(=O)=O)nc3N3CCC4(CC3)CC4)n2)CCO1 [Example 121, 3-(6-azaspiro[2.5]octan-6-yl)-N-(6-((2R)-2-methyl-4-morpholinyl)-2-pyridinyl)-5-((methylsulfonyl)amino)-2-pyrazinecarboxamide]
316 nM	CC(C)(CO)Nc1ccc(C(=O)Nc2cccc(-c3ncco3)n2)c(N2CCC3(CC2)CC3)n1 [Example 122, 2-(6-azaspiro[2.5]oct-6-yl)-6-((2-hydroxy-1,1-dimethylethyl)amino)-N-(6-(1,3-oxazol-2-yl)-2-pyridinyl)-3-pyridinecarboxamide]
64 nM	CC(C)(C)NS(=O)(=O)c1cccc(NC(=O)c2ccc(NC(C)(C)CO)nc2N2CCC3(CC2)CC3)n1 [Example 123, 2-(6-azaspiro[2.5]oct-6-yl)-N-(6-(tert-butylsulfamoyl)-2-pyridinyl)-6-((2-hydroxy-1,1-dimethylethyl)amino)-3-pyridinecarboxamide]
407 nM	COC1CCN(c2cccc(NC(=O)c3ccc(NC(C)(C)CO)nc3N3CCC4(CC3)CC4)n2)C1 (stereo not drawn) [Example 124, 6-((1-hydroxy-2-methylpropan-2-yl)amino)-N-(6-(3-methoxypyrrolidin-l-yl)pyridin-2-yl)-2-(6-azaspiro[2.5]octan-6-yl)nicotinamide]
136 nM	CC(C)(CO)Nc1ccc(C(=O)Nc2cccc(N3CCCC3)n2)c(N2CCC3(CC2)CC3)n1 [Example 125, 2-(6-azaspiro[2.5]oct-6-yl)-6-((2-hydroxy-1,1-dimethylethyl)amino)-N-(6-(1-pyrrolidinyl)-2-pyridinyl)-3-pyridinecarboxamide]
60.2 nM	CC1CN(c2cccc(NC(=O)c3ccc(NC(C)(C)CO)nc3N3CCC4(CC3)CC4)n2)CCO1 (stereo not shown) [Example 126, 6-((1-hydroxy-2-methylpropan-2-yl)amino)-N-(6-(2-methylmorpholino)pyridin-2-yl)-2-(6-azaspiro[2.5]octan-6-yl)nicotinamide]
52.5 nM	CC(C)(CO)Nc1ccc(C(=O)Nc2cccc(N3CCOCC3)n2)c(N2CCC3(CC2)CC3)n1 [Example 127, 2-(6-azaspiro[2.5]oct-6-yl)-6-((2-hydroxy-1,1-dimethylethyl)amino)-N-(6-(4-morpholinyl)-2-pyridinyl)-3-pyridinecarboxamide]
95.3 nM	CC1(C)CCN(c2cccc(NC(=O)c3ccc(NC(C)(C)CO)nc3N3CCC4(CC3)CC4)n2)C1 [Example 128, 2-(6-azaspiro[2.5]oct-6-yl)-N-(6-(3,3-dimethyl-l-pyrrolidinyl)-2-pyridinyl)-6-((2-hydroxy-1,1-dimethylethyl)amino)-3-pyridinecarboxamide]
83.4 nM	CC(C)(CO)Nc1ccc(C(=O)Nc2cccc(N3CCC(F)(F)C3)n2)c(N2CCC3(CC2)CC3)n1 [Example 129, 2-(6-azaspiro[2.5]oct-6-yl)-N-(6-(3,3-difluoro-l-pyrrolidinyl)-2-pyridinyl)-6-((2-hydroxy-1,1-dimethylethyl)amino)-3-pyridinecarboxamide]
172 nM	CC(C)(CO)Nc1ccc(C(=O)Nc2cccc(N3CCOC(C)(C)C3)n2)c(N2CCC3(CC2)CC3)n1 [Example 130, 2-(6-azaspiro[2.5]oct-6-yl)-N-(6-(2,2-dimethyl-4-morpholinyl)-2-pyridinyl)-6-((2-hydroxy-1,1-dimethylethyl)amino)-3-pyridinecarboxamide]
294 nM	CC(C)(CO)Nc1ccc(C(=O)Nc2cccc(N3CCC(O)C3)n2)c(N2CCC3(CC2)CC3)n1 (stereo not shown) [Example 131, 6-((1-hydroxy-2-methylpropan-2-yl)amino)-N-(6-(3-hydroxypyrrolidin-1-yl)pyridin-2-yl)-2-(6-azaspiro[2.5]octan-6-yl)nicotinamide]
82.1 nM	C[C@H]1CN(c2cccc(NC(=O)c3ccc(NC(C)(C)CO)nc3N3CCC4(CC3)CC4)n2)CCO1 [Example 132, 2-(6-azaspiro[2.5]oct-6-yl)-6-((2-hydroxy-1,1-dimethylethyl)amino)-N-(6-((2S)-2-methyl-4-morpholinyl)-2-pyridinyl)-3-pyridinecarboxamide]
604 nM	CN1CCN(c2cccc(NC(=O)c3ccc(NC(C)(C)CO)nc3N3CCC4(CC3)CC4)n2)CC1 [Example 133, 2-(6-azaspiro[2.5]oct-6-yl)-6-((2-hydroxy-1,1-dimethylethyl)amino)-N-(6-(4-methyl-1-piperazinyl)-2-pyridinyl)-3-pyridinecarboxamide]
204 nM	CC(C)(CO)Nc1ccc(C(=O)Nc2cccc(N3CCCC3=O)n2)c(N2CCC3(CC2)CC3)n1 [Example 134, 2-(6-azaspiro[2.5]oct-6-yl)-6-((2-hydroxy-1,1-dimethylethyl)amino)-N-(6-(2-oxo-1-pyrrolidinyl)-2-pyridinyl)-3-pyridinecarboxamide]
